How the values were obtained:
Zymoseptoria tritici = test: Leaf blotch of wheat (SEPTTR) disease control on wheat seedlings; assay type: in vivo; design: key to SEPTTR 1DP, HV activity at 100 ppm (% control rating) / SEPTTR 3DC, HV activity at 100 ppm (% control rating) / SEPTTR disease control, 1DP / SEPTTR disease control, 3DC / SEPTTR 1DP disease control rating, HV activity / SEPTTR 3DC disease control rating, HV activity / SEPTTR 3DC, LV activity at 125.1 g/H (% Control rating) / SEPTTR 1DP, LV activity at 125.1 g/H (% Control rating) / SEPTTR 1DP disease control rating, LV activity at 125.1 g/H / SEPTTR 3DC disease control rating, LV activity at 125.1 g/H / SEPTTR 3DC disease control rating, HV activity at 100 ppm / SEPTTR 1DP disease control rating, HV activity at 100 ppm / HV activity at 100 ppm SEPTTR 3DC (disease control rating) / HV activity at 100 ppm SEPTTR 1DP (disease control rating) / LV activity at 125.1 g/H SEPTTR 1DP (disease control rating) / LV activity at 125.1 g/H SEPTTR 3DC (disease control rating): A: > 80; B: ≤ 80; C: Not Tested; D: No Activity Observed in the Reported Assay; details: for SEPTTR 1DP disease control rating, HV activity / SEPTTR 3DC disease control rating, HV activity: HV application at 100 ppm; for SEPTTR 1DP disease control rating, HV activity at 100 ppm / SEPTTR 3DC disease control rating, HV activity at 100 ppm: high volume application
Puccinia triticina = test: Wheat brown rust (PUCCRT) disease control on wheat seedlings; assay type: in vivo; design: key to PUCCRT 3DC, HV activity at 100 ppm (% control rating) / PUCCRT disease control, 3DC / PUCCRT 1DP disease control rating, HV activity / PUCCRT 3DC disease control rating, HV activity / PUCCRT 3DC, LV activity at 125.1 g/H (% Control rating) / PUCCRT 1DP, LV activity at 125.1 g/H (% Control rating) / PUCCRT 3DC disease control rating, LV activity at 125.1 g/H / PUCCRT 1DP disease control rating, LV activity at 125.1 g/H / PUCCRT 3DC disease control rating, HV activity at 100 ppm / PUCCRT 1DP disease control rating, HV activity at 100 ppm / HV activity at 100 ppm PUCCRT 3DC (disease control rating) / LV activity at 125.1 g/H PUCCRT 1DP (disease control rating) / LV activity at 125.1 g/H PUCCRT 3DC (disease control rating): A: > 80; B: ≤ 80; C: Not Tested; D: No Activity Observed in the Reported Assay; details: for PUCCRT 1DP disease control rating, HV activity / PUCCRT 3DC disease control rating, HV activity: HV application at 100 ppm; for PUCCRT 1DP disease control rating, HV activity at 100 ppm / PUCCRT 3DC disease control rating, HV activity at 100 ppm: high volume application
[1] = 1 Day Protectant, wheat leaf blotch
[2] = 3 Day Curative, wheat leaf blotch
[3] = 1 Day Protectant, wheat brown rust
[4] = 3 Day Curative, wheat brown rust
[5] = low volume application, 125.1 g/H, 1 Day Protectant
[6] = low volume application, 125.1 g/H, 3 Day Curative
[7] = low volume application, 125.1 g/H, 1 day protectant
[8] = low volume application, 125.1 g/H, 3 day curative

`COc1ccnc(C(=O)N[C@@H](C)C(=O)O[C@@H](C)COC2CCCC2)c1O` [Cmpd 340] was tested, and the “SEPTTR 1DP disease control rating, HV activity” value (Zymoseptoria tritici; [1]) was “B (≤ 80)”, the “SEPTTR 3DC disease control rating, HV activity” value (Zymoseptoria tritici; [2]) was “D” and the “PUCCRT 1DP disease control rating, HV activity” value (Puccinia triticina; [3]) was “B (≤ 80)”. The “PUCCRT 3DC disease control rating, HV activity” value (Puccinia triticina; [4]) was “A (> 80)”.

For `COc1ccnc(C(=O)N[C@@H](C)C(=O)O[C@@H](C)[C@H](OCC2CC2)C2CCCC2)c1O` [Cmpd 845, (S)-(1R,2S)-1-cyclopentyl-1-(cyclopropyl-methoxy)propan-2-yl-2-(3-hydroxy-4-methoxypicolinamido)propanoate], the “SEPTTR 1DP disease control rating, HV activity at 100 ppm” value (Zymoseptoria tritici; 100 ppm, 1 day protectant) was “B (≤ 80)”, the “SEPTTR 3DC disease control rating, HV activity at 100 ppm” value (Zymoseptoria tritici; 100 ppm, 3 day curative) was “B (≤ 80)” and the “PUCCRT 1DP disease control rating, HV activity at 100 ppm” value (Puccinia triticina; 100 ppm, 1 day protectant) was “A (> 80)”. For the same molecule, the “PUCCRT 3DC disease control rating, HV activity at 100 ppm” value (Puccinia triticina; 100 ppm, 3 day curative) was “A (> 80)”.

In the case of `COc1ccnc(C(=O)N[C@@H](C)C(=O)O[C@@H](C)[C@H](Oc2ccccc2)C2CC2)c1OC(C)=O` [Cmpd 1064], the “LV activity at 125.1 g/H SEPTTR 1DP (disease control rating)” value (Zymoseptoria tritici; low volume application, 125.1 g/H, 1 Day Protectant, wheat leaf blotch) is reported as “B (≤ 80)”, the “LV activity at 125.1 g/H SEPTTR 3DC (disease control rating)” value (Zymoseptoria tritici; low volume application, 125.1 g/H, 3 Day Curative, wheat leaf blotch) is reported as “A (> 80)” and the “LV activity at 125.1 g/H PUCCRT 1DP (disease control rating)” value (Puccinia triticina; low volume application, 125.1 g/H, 1 Day Protectant, wheat brown rust) is reported as “A (> 80)”. For the same molecule, the “LV activity at 125.1 g/H PUCCRT 3DC (disease control rating)” value (Puccinia triticina; low volume application, 125.1 g/H, 3 Day Curative, wheat brown rust) was “A (> 80)”.

In the case of `COc1ccnc(C(=O)NC(C)C(=O)OC(C)C(Oc2cc(F)cc(Cl)c2)C(C)C)c1O` (centres unmarked) [Cmpd 393], the “SEPTTR 1DP disease control rating, HV activity” value (Zymoseptoria tritici; [1]) is reported as “B (≤ 80)”, the “SEPTTR 3DC disease control rating, HV activity” value (Zymoseptoria tritici; [2]) is reported as “A (> 80)” and the “PUCCRT 1DP disease control rating, HV activity” value (Puccinia triticina; [3]) is reported as “A (> 80)”. The “PUCCRT 3DC disease control rating, HV activity” value (Puccinia triticina; [4]) was “B (≤ 80)”.

`CC[C@H](NC(=O)c1nccc(OC)c1OC(C)=O)C(=O)O[C@@H](C)[C@H](Oc1cc(F)cc(Cl)c1)c1ccccc1` [Cmpd 644] was tested, and the “SEPTTR 1DP, LV activity at 125.1 g/H (% Control rating)” value (“SEPTTR 1DP … (% Control rating)” for short) (Zymoseptoria tritici; [5]) was “A (> 80)”, the “SEPTTR 3DC, LV activity at 125.1 g/H (% Control rating)” value (“SEPTTR 3DC … (% Control rating)” below) (Zymoseptoria tritici; [6]) was “A (> 80)” and the “PUCCRT 1DP, LV activity at 125.1 g/H (% Control rating)” value (shortened to “PUCCRT 1DP … (% Control rating)”) (Puccinia triticina; [5]) was “A (> 80)”. For the same molecule, the “PUCCRT 3DC, LV activity at 125.1 g/H (% Control rating)” value (“PUCCRT 3DC … (% Control rating)” for short) (Puccinia triticina; [6]) was “B (≤ 80)”.

For `CCC(CC)[C@@H](Oc1cccc(-c2ccccc2)c1)[C@H](C)OC(=O)[C@@H](NC(=O)c1nccc(OC)c1OCOC(C)=O)C(C)C` [Cmpd 654], the “SEPTTR 1DP … (% Control rating)” value (Zymoseptoria tritici; [5]) was “B (≤ 80)”, the “SEPTTR 3DC … (% Control rating)” value (Zymoseptoria tritici; [6]) was “D” and the “PUCCRT 1DP … (% Control rating)” value (Puccinia triticina; [5]) was “A (> 80)”. For the same molecule, the “PUCCRT 3DC … (% Control rating)” value (Puccinia triticina; [6]) was “D”.

`CCC(CC)C(Oc1cc(F)cc(Cl)c1)C(C)OC(=O)C(C)NC(=O)c1nccc(OC)c1O` (centres unmarked) [Cmpd 383] was tested, and the “SEPTTR 1DP disease control rating, HV activity” value (Zymoseptoria tritici; [1]) was “B (≤ 80)”, the “SEPTTR 3DC disease control rating, HV activity” value (Zymoseptoria tritici; [2]) was “A (> 80)” and the “PUCCRT 1DP disease control rating, HV activity” value (Puccinia triticina; [3]) was “A (> 80)”. For the same molecule, the “PUCCRT 3DC disease control rating, HV activity” value (Puccinia triticina; [4]) was “A (> 80)”.

With `COc1ccnc(C(=O)N[C@@H](C)C(=O)O[C@@H](C)[C@@H](CC(C)C)Oc2ccc(C)cc2Cl)c1O` [Cmpd 1051] the “HV activity at 100 ppm SEPTTR 1DP (disease control rating)” value (Zymoseptoria tritici; HV application, 100 ppm, 1 Day Protectant, wheat leaf blotch) was “B (≤ 80)”, the “HV activity at 100 ppm SEPTTR 3DC (disease control rating)” value (Zymoseptoria tritici; HV application, 100 ppm, 3 Day Curative, wheat leaf blotch) was “D” and the “HV activity at 100 ppm PUCCRT 1DP (disease control rating)” value (Puccinia triticina; HV application, 100 ppm, 1 Day Protectant, wheat brown rust) was “A (> 80)”. The “HV activity at 100 ppm PUCCRT 3DC (disease control rating)” value (Puccinia triticina; HV application, 100 ppm, 3 Day Curative, wheat brown rust) was “B (≤ 80)”.

For `COc1ccnc(C(=O)N[C@H](C(=O)O[C@@H](C)[C@H](Oc2ccc3ccccc3c2)C(C)C)C(C)C)c1OCOC(C)=O` [Cmpd 633], the “SEPTTR 1DP … (% Control rating)” value (Zymoseptoria tritici; [5]) was “B (≤ 80)”, the “SEPTTR 3DC … (% Control rating)” value (Zymoseptoria tritici; [6]) was “A (> 80)” and the “PUCCRT 1DP … (% Control rating)” value (Puccinia triticina; [5]) was “A (> 80)”. The “PUCCRT 3DC … (% Control rating)” value (Puccinia triticina; [6]) was “A (> 80)”.

In the case of `COc1ccnc(C(=O)N[C@@H](C)C(=O)O[C@@H](C)[C@H](Oc2ccc(Cl)cc2)C2CCCC2)c1O` [Cmpd 842], the “SEPTTR 1DP disease control rating, HV activity at 100 ppm” value (Zymoseptoria tritici; 100 ppm, 1 day protectant) is reported as “A (> 80)”, the “SEPTTR 3DC disease control rating, HV activity at 100 ppm” value (Zymoseptoria tritici; 100 ppm, 3 day curative) is reported as “B (≤ 80)” and the “PUCCRT 1DP disease control rating, HV activity at 100 ppm” value (Puccinia triticina; 100 ppm, 1 day protectant) is reported as “A (> 80)”. For the same molecule, the “PUCCRT 3DC disease control rating, HV activity at 100 ppm” value (Puccinia triticina; 100 ppm, 3 day curative) was “A (> 80)”.

With `COc1ccnc(C(=O)NC(C)C(=O)OC(C)C(Oc2ccc(Cl)cc2Cl)c2ccccc2)c1OCOC(C)=O` (centres unmarked) [Cmpd 869] the “SEPTTR 1DP disease control rating, LV activity at 125.1 g/H” value (Zymoseptoria tritici; [7]) was “A (> 80)”, the “SEPTTR 3DC disease control rating, LV activity at 125.1 g/H” value (Zymoseptoria tritici; [8]) was “A (> 80)” and the “PUCCRT 1DP disease control rating, LV activity at 125.1 g/H” value (Puccinia triticina; [7]) was “A (> 80)”. For the same molecule, the “PUCCRT 3DC disease control rating, LV activity at 125.1 g/H” value (Puccinia triticina; [8]) was “B (≤ 80)”.
